Assay results published in US9120762B2, “Salts of bicyclo-substituted pyrazolon azo derivatives, preparation method and use thereof” (Jiangsu Hengrui Medicine Co., Ltd., priority 2009, dated 2015).
pEC50: −log10 of the molar value. Where two headings read alike, the source gives them in different places.

Tests used:
[1] = Pharmacokinetics assay in Beagle dogs; assay type: in vivo; details: intragastric, 5 mg/kg (as free acid), 5 mg/kg
Description: The pharmacokinetic behavior of the compounds of the present disclosure was studied and evaluated in Beagle dogs.
12 Healthy adult Beagles dogs, male, were purchased from Suzhou Xishan Drug Research and Development Colo., LTD. License number: SCXK (Suzhou) 2007-0005.
The test compound was diluted with 0.5% sodium carboxymethyl cellulose to 2.5 mg/mL (calculated as the free acid form) of suspension before use.
12 Healthy adult Beagles dogs, male, were divided into 4 groups. After an overnight fast, the dogs were administered intragastrically at a dose of 5.0 mg/kg (calculated as the free acid form), at a volume of 2 mL/kg.
Blood samples (1.2 mL) were taken from vein of forelegs at pre administration and at 0.25, 0.5, 1.0, 1.5, 2.0, 3.0, 5.0, 6.0, 8.0, 12.0, 14.0, 24.0 and 48.0 hours post administration, which were stored in heparinized tubes and centrifuged for 10 minutes at 3,500 rpm. The plasma samples were stored at −20° C. until analysis. The Beagles dogs were fed 2 hours after administration.
50 μL of Beagles dog plasma, obtained at various time points after administration, 20 μL of internal standard solution and 150 μL of methanol was added to result in protein precipitation. Then the mixture was mixed for 1 minute using a vortexer and centrifuged for 5 minutes at 11,000 rpm. 50 μL of the supernatant was analyzed by HPLC-UV.
The compartmental model of pharmacokinetics was fitted for the test compounds and the major pharmacokinetic parameters were calculated in which Cmax and tmax were the actually measured values.

[2] = target: T1, human TPOR (Homo sapiens, UniProt P40238); assay: Proliferation effect on BAF3-TPOR cell (CCK-8); assay type: cell-based; details: rate relative to rhTPO positive control
T1 construct: host or cells: BaF3 (murine pro-B cells), stably transfected, G418-selected
T1 sequence (P40238 26-635): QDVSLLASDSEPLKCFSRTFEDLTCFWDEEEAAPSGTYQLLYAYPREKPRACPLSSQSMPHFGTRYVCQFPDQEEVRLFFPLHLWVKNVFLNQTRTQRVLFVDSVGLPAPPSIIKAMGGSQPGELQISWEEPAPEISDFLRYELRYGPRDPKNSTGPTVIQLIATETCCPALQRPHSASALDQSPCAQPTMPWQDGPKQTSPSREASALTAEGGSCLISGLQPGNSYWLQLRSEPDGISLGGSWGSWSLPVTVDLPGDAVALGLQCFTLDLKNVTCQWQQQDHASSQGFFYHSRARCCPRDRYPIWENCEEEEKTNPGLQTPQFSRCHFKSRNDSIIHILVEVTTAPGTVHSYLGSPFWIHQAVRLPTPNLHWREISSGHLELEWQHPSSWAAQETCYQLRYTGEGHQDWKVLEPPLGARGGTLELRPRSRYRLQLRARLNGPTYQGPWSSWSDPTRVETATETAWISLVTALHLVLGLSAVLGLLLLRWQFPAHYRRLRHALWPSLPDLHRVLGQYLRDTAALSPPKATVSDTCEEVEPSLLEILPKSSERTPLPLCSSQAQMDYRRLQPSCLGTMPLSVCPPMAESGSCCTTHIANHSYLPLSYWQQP
Description: (1) Plasmid constructs: based on the TPO receptor (TPOR) sequence information from Entrez (Gene ID: 4325, Refseq: NM_005373), dual-site mutation was performed on EX-B0010-M02 plasmid by using QuikChange® Multi Site Directed Mutagenesis Kit (Stratagene). The sequence of primers containing multi-sites mutation was designed as follows: […]
The E. coli DH5α competent cells were transformed with mutated plasmid, and positive colonies were picked up through ampicillin selection. The mutation result was confirmed by sequence analysis.
(2) BAF3-TPOR stable transfected cell line: the following method was used to construct the BaF3 cell which stably over-expressed functional human TPOR. The successfully mutated EX-B0010-M02 plasmid ([…]) which expressed human TPOR and screening gene neomycin was transfected into wild-type BaF3 cells (1×10^7) by electroporation at 250V for 18 ms using an electric pulse generator (Electro Square Porator ECM830, BTX Division of Genetronic, Inc. US). The stable transfected cells BAF3-TPOR were selected with G418 (Gibco, US), then incubated in RPMI1640 medium plus 10% FBS (Gibco, US), […] G418, 5 ng/mL, rmIL-3 (Chemicon, US).
(1) Washing cells by centrifugation: a suitable amount of cell suspension was centrifuged at 1000 rpm for 5 minutes, and the supernatant was discarded. 10 mL of cell culture media without IL-3 was added. Then the resulting cell suspension was centrifuged at 1000 rpm for 5 minutes, and the supernatant was discarded.
(2) 1 mL of cell culture media without IL-3 was added to beat upon them to equality, and the number of a suitable amount of cell suspension was counted after dilution.
(3) According to the result of the cell counting, a cell suspension in a concentration of 100,000 cell/mL was prepared.
(4) 100 μL of cell suspension was transferred to each well of 96-well culture plate, and there were 3 parallel wells, that is, there were a blank control group (B), a negative control group (N), a positive control group of TPO (P) and a test compound group (S).
(5) The test compound was dissolved in DMSO to prepare a 10 mM stock solution, and then the solution was diluted with RPMI 1640 medium into a series of test samples at different concentration: 30 μM, 10 μM, 3 μM, 1 μM, 0.3 μM, 0.1 μM, 0.03 μM, 0.01 μM, 0.003 μM, 0.001 μM.
(6) 10 μL of test compound solution was transferred to each well respectively; 1 μL of rhTPO (10 ng/mL) was added to positive control well.
(7) The plates were incubated in an incubator at 5% CO2 and 37° C. for 24 hours.
(8) After incubation, 10 μL of CCK-8 solution was added to each well and the plates were incubated in the incubator for another 24 hours.
(9) OD value was detected at 450 nm by VICTORS (Perkin Elmer 1420-120) plate reader.
(1) The proliferation rate was calculated as follows: Rate=[(S−B)/(P−B)]*100%
S: OD value of wells which contain test compound.
B: OD value of blank control wells
P: OD value of positive control wells
(2) The EC50 value was calculated by Origin 7.0 software.

[3] = Hygroscopicity assay, standing 48 hours at 25° C., humidity 79%; assay type: physicochemical; details: 48 hours, 25° C., humidity 79%
Description: The hygroscopicity test of the compounds of the present disclosure after standing for 48 hours
1. The arid glass weighing bottle with a tap (external diameter is 50 mm, the height is 15 mm) was placed at 25° C.±1° C. suitably in a thermostatic drier (saturated ammonium sulfate solution was laid in the lower part, humidity was 79%) the day before the assay, precise weight was measured as (m1);
2. The above weighing bottle was covered with the compounds of the invention (about 1 g), and the thickness of the compounds were generally 1 mm, precise weight was measured as (m2);
3. The mouth of the weighing bottle was kept open and placed with the tap in the above conditions with constant temperature and humidity for 48 hours;
4. Put the tap back on the bottle, precise weight was measured as (m3)
The degree of hygroscopicity was defined as follows: […]
Deliquesce: turning into liquid by absorbing enough moisture.
High hygroscopicity: the percentage of hygroscopicity weight gain is not less than 15%.
Hygroscopicity: the percentage of hygroscopicity weight gain is less than 15%, but not less than 2%.
Sparing hygroscopicity: the percentage of hygroscopicity weight gain is less than 2%, but not less than 0.2%.
No hygroscopicity or almost no hygroscopicity: the percentage of hygroscopicity weight gain is less than 0.2%.

[4] = Pharmacokinetics assay in rats; assay type: in vivo, SD rats; details: SD rats, intragastric, 50 mg/Kg (as free acid); 50 mg/kg
Outline: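 SD rats, half male and half female, dosed intragastrically with compound suspended at 5 mg/mL (as free acid) in 1% sodium carboxymethyl cellulose; fed 2 h post-dose. Plasma concentrations over time were measured by HPLC-UV. Parameters came from a compartmental fit, with Cmax and tmax as observed values.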

[5] = Solubility assay in water, 0.1% hydrochloric acid and methanol; assay type: physicochemical
Outline: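 Solubility was classed by the solvent volume needed to dissolve 1 g (mL) of solute, from "very soluble" (<1 mL) to "practically insoluble" (not fully dissolved in 10000 mL).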

Row | Compound | Area Under Curve AUC [1] | Clearance CL/F [1] | Half-Life t1/2 [1] | Plasma Conc. Cmax [1] | Time to peak Tmax [1] | pEC50 [2] | Percentage of weight gain [3] | hygroscopicity [3] | Area Under Curve AUC [4] | Clearance CL/F [4] | Half-Life t½ [4] | Plasma Conc. Cmax [4] | Time to peak Tmax [4] | solubility ([5]; 0.1% hydrochloric acid, simulated gastric fluid, 0.1% hydrochloric acid, read-out: solubility) | solubility ([5]; methanol) | solubility ([5]; water) | Mean Residence Time MRT [4]
1 | CC1=NN(c2ccc3c(c2)CCCC3)C(=O)/C1=N\Nc1cccc(-c2ccc(C(=O)O)o2)c1O [Example 10] | 9760 ng·h/mL | 10.1 mL/min/kg | 8.07 h | 810 ng/mL | 0.7 h | 7.80 | 15.7% | High hygroscopicity (the percentage of hygroscopicity weight gain is not less than 15%) | 381000 ± 306000 ng·h/mL | 8.23 ± 12.6 mL/min/kg | 12.9 ± 6.32 h | 65600 ± 44500 ng/mL | 1.63 ± 0.75 h | – | – | – | –
2 | CC1=NN(c2ccc3c(c2)CCC3)C(=O)/C1=N\Nc1cccc(-c2csc(C(=O)O)c2)c1O [Example 19d, (Z)-4-{2-hydroxy-3-[N′-(1-indan-5-yl-3-methyl-5-oxo-1,5-dihydro-pyrazol-4-ylidene)-hydrazino]-phenyl}-thiophene-2-carboxylic acid] | – | – | – | – | – | 7.37 | – | – | 36100 ± 36400 ng·h/mL | 24 ± 13.8 mL/min/kg | 1.84 ± 1.05 h | 7910 ± 6840 ng/mL | 2.50 ± 0.58 h | < 1 µg/mL | <1 µg/mL | <1 µg/mL | 3.01 ± 1.99 h
3 | CC1=NN(c2ccc3c(c2)CCCC3)C(=O)/C1=N\Nc1cccc(-c2ccc(C(=O)O)o2)c1O [Example 23, (Z)-5-(2-hydroxy-3-{N′-[3-methyl-5-oxo-1-(5,6,7,8-tetrahydro-naphthalen-2-yl)-1,5-dihydro-pyrazol-4-ylidene]-hydrazino}-phenyl)-furan-2-carboxylic acid choline] | – | – | – | – | – | 7.37 | 8.48% | Hygroscopicity (the percentage of hygroscopicity weight gain is less than 15%, but not less than 2%) | 123000 ± 89500 ng·h/mL | 8.78 ± 4 mL/min/kg | 7.61 ± 1.34 h | 17200 ± 12300 ng/mL | 3.25 ± 3.18 h | – | – | – | –
